Measurements from US9982006B2, “2′-chloro aminopyrimidinone and pyrimidine dione nucleosides” (Gilead Sciences, Inc., priority 2014, dated 2018).

Tested on: RSV strain A2
Experiment: RSV cell culture EC50 determination (infectious cytopathic cell protection assay in HEp-2 cells)
Assay type: cell-based
Conditions: human respiratory syncytial virus, 96 h; inhibition of RSV-induced cytopathic effect in HEp-2 cells, 4 days, Cell TiterGlo readout
Procedure: RSV Cell Culture EC50 Determination
Antiviral activity against RSV is determined using an infectious cytopathic cell protection assay in HEp-2 cells. In this assay, compounds inhibiting viral infection and/or replication produce a cytoprotective effect against the virus-induced cell killing that can be quantified using a cell viability reagent. The techniques used here are novel adaptations of methods described in published literature (Chapman et al., Antimicrob Agents Chemother. 2007, 51(9):3346-53.)
HEp-2 cells are obtained from ATCC (Manassas, VI) and maintained in MEM media supplemented with 10% fetal bovine serum and penicillin/streptomycin. […]
For antiviral tests, HEp-2 cells are grown in large cell culture flasks to near confluency but not fully so. […] Each compound dilution is transferred in single or quadruplicate samples into dry assay plates, which are stored until assay is ready to go. […]
Subsequently, an infectious mixture is prepared using an appropriate dilution of virus stock previously determined by titration with cells at a density of 50,000/ml and 20 uL/well is added to test plates w/compounds via automation (uFlow, Biotek). […] After the incubation, a cell viability reagent, Cell TiterGlo (Promega, Madison, Wis.) is added to the assay plates, which are incubated briefly, and a luminescent readout is measured (Envision, Perkin Elmer) in all the assay plates. […]

- EC50: > 50 µM
SMILES: Nc1ccn([C@@H]2O[C@@](CO)(CCl)[C@@H](O)[C@H]2Cl)c(=O)n1 [Example 1, 4-amino-1-((2R,3R,4R,5R)-3-chloro-5-(chloromethyl)-4-hydroxy-5-(hydroxymethyl)tetrahydrofuran-2-yl)pyrimidin-2(1H)-one]
